# Earlier results as cited in patent publication US20250288584A1, “COMBINATIONS COMPRISING POSITIVE ALLOSTERIC MODULATORS OR ORTHOSTERIC AGONISTS OF METABOTROPIC GLUTAMATERGIC RECEPTOR SUBTYPE 2 AND THEIR USE” (JANSSEN PHARMACEUTICA NV, priority 2014, published 2025).
# System: pentylenetetrazol seizures
# Conditions: in vivo; cited from earlier work
compound,measurement,value
"CC[C@@H](C(N)=O)N1CCCC1=O [LEV, (S)-2-(2-oxopyrrolidin-1-yl) butanamide, reference compound]",activity in pentylenetetrazol seizure test,no activity
